This assay has as its target T1, Acyl-CoA : cholesterol acyltransferase (ACAT) (Rattus norvegicus, UniProt Q7TQM4).
T1 construct: from the mucosal microsome fraction of the small intestine of male, 6-week old Sprague-Dawley rats; from tissue; host or cells: mucosal microsome fraction of the small intestine of male 6-week old Sprague-Dawley rats, fasted for 20 hours
T1 sequence (Q7TQM4 1-524): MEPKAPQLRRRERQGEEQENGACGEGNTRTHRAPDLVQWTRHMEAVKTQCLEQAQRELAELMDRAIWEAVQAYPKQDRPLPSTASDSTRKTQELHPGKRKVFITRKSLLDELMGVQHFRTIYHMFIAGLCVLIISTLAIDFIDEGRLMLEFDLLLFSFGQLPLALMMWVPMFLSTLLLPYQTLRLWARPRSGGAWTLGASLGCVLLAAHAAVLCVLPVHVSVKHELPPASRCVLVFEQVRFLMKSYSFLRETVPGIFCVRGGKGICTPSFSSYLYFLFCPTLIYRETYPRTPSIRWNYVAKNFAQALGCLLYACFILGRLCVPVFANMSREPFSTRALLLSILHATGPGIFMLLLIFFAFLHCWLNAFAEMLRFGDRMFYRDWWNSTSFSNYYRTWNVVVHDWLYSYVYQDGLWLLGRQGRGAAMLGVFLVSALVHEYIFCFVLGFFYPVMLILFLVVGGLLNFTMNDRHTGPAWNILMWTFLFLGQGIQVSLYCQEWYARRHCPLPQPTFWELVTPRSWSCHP
The experiment in a line: Acyl-CoA : cholesterol acyltransferase (ACAT) inhibitory activity: production of labeled cholesterol ester from [1-^14 C] oleoyl-CoA and endogenous cholesterol. As to conditions: for inhibition at 1 µM: 10^-6 M test compound, read-out: ACAT Inhibition Rate. The format is biochemical. The protocol:
1. Acyl-CoA : cholesterol acyltransferase (ACAT) inhibitory activity.
The enzyme ACAT was prepared by the method of Heider et al. described in Journal of Lipid Research, Vol. 24, page 1127 (1982), from the mucosal microsome fraction of the small intestine of male, 6-week old Sprague-Dawley rats which had been fasted for 20 hours.
ACAT activity was calculated by the method of Helgerud et al. described in Journal of Lipid Research, Vol. 22, page 271 (1981), namely, by measuring the amount of the labeled cholesterol ester produced from [1-^14 C] oleoyl-CoA and endogenous cholesterol.
Inhibition rates (%) of the production of the labeled cholesterol ester wherein 10^-6 M-10^-8 M of test compounds were added are shown as an index of ACAT inhibitory activity in Table 1.

Where two headings read alike, the source gives them in different places.

For orientation: inhibition means the drop in the measured response relative to a control, in per cent.

In the case of `O=C(Nc1ccc(F)cc1F)Nc1cnc2ccc(Cl)cc2c1-c1cccc(Cl)c1` [Example 24, 6-Chloro-4-(3-chlorophenyl)-3-[3-(2,4-difluorophenyl)ureido]quinoline], the inhibition at 1 µM stood at 88.5%. With `Cc1cc(C)c2ncc(NC(=O)Nc3ccc(Cl)cc3)c(-c3ccccc3Cl)c2c1` [Example 51, 4-(2-Chlorophenyl)-3-[3-(4-chlorophenyl)ureido]-6,8-dimethylquinoline], the inhibition at 1 µM came to 97.2%.

Turning to `CCc1ccc2ncc(NC(=O)Nc3ccc(F)cc3F)c(-c3ccccc3Cl)c2c1` [Example 33, 4-(2-Chlorophenyl)-3-[3-(2,4-difluorophenyl)ureido]-6-ethylquinoline], the inhibition at 1 µM was found to be 99.2%. The same measure, in the same setting: for `Cc1cc2c(-c3ccccc3Cl)c(NC(=O)Nc3ccc(F)cc3F)cnc2c(C)c1C` [Example 74, 4-(2-Chlorophenyl)-3-[3-(2,4-difluorophenyl)ureido]-6,7,8-trimethylquinoline] the value was 99.3%; for `COc1ccc(-c2c(NC(=O)Nc3ccc(F)cc3F)cnc3ccc(Cl)cc23)cc1` [Example 28, 6-Chloro-3-[3-(2,4-difluorophenyl)ureido]-4-(4-methoxyphenyl)quinoline], 92.7%. Consider `Cc1cc(C)c2ncc(NC(=O)Nc3cc(C)c(O)c(C)c3C)c(-c3ccccc3Cl)c2c1` [Example 81, 4-(2-Chlorophenyl)-3-[3-(4-hydroxy-2,3,5-trimethylphenyl)ureido]-6,8-dimethylquinoline], for which the inhibition at 1 µM came out at 97.9%. For `O=C(Nc1ccc(Cl)cc1)Nc1cnc2ccc(Cl)cc2c1-c1ccccc1` [Compound B, 6-chloro-3-[3-(4-chlorophenyl)ureido]-4-phenylquinoline, reference compound], the “ACAT inhibitory activity (in words)” value is “excellent ACAT inhibitory activities” and the inhibition at 1 µM worked out at 54.5%. Moreover, the “ACAT inhibitory activity (in words)” value (listed as compound B) is “strong ACAT inhibitory activity”.

For `O=C(Nc1ccc(F)cc1F)Nc1cnc2ccc(OC(F)F)cc2c1-c1ccccc1` [Example 54, 6-Difluoromethoxy-3-[3-(2,4-difluorophenyl)ureido]-4 4-phenylquinoline], the inhibition at 1 µM was determined as 80.7%. In the case of `COc1ccc2ncc(NC(=O)Nc3ccc(F)cc3F)c(-c3ccccc3)c2c1` [Example 18, 3-[3-(2,4-Difluorophenyl)ureido]-6-methoxy-4-phenylquinoline], the inhibition at 1 µM was found to be 85.9%. Regarding `Cc1ccc2ncc(NC(=O)Nc3ccc(F)cc3F)c(-c3ccccc3C)c2c1` [Example 31, 3-[3-(2,4-Difluorophenyl)ureido]-6-methyl-4-(2-methylphenyl)quinoline], the inhibition at 1 µM came out at 96.9%. `CSc1ccc2ncc(NC(=O)Nc3ccc(F)cc3F)c(-c3ccccc3)c2c1` [Example 37, 3-[3-(2,4-Difluorophenyl)ureido]-6-methylthio-4-phenylquinoline]: the inhibition at 1 µM turned out to be 87.8%. As for `Cc1cc(C)c2ncc(NC(=O)Nc3c(C)cccc3C)c(-c3ccccc3Cl)c2c1` [Example 70, 4-(2-Chlorophenyl)-6,8-dimethyl-3-[3-(2,6-dimethyl-phenyl)ureido]quinoline], the inhibition at 1 µM turned out to be 97.9%. Still for that read-out and setting: the same measure for `Cc1cc(C)c2ncc(NC(=O)Nc3c(F)cc(F)cc3F)c(-c3ccccc3Cl)c2c1` [Example 62, 4-(2-chlorophenyl)-6,8-dimethyl-3-[3-(2,4,6-trifluorophenyl)ureido]quinoline]: 97.3%; for `O=C(Nc1ccc(F)cc1F)Nc1cnc2ccc(Br)cc2c1-c1ccccc1` [Example 11, 6-Bromo-3-[3-(2,4-difluorophenyl)ureido]-4-phenylquinoline]: 85.5%; for `CC(C)c1ccc2ncc(NC(=O)Nc3ccc(F)cc3F)c(-c3ccccc3)c2c1` [Example 15, 3-[3-(2,4-Difluorophenyl)ureido]-6-isopropyl-4-phenylquinoline]: 91.6%.

As to `Cc1cccc2ncc(NC(=O)Nc3ccc(F)cc3F)c(-c3ccccc3Cl)c12` [Example 83, 4-(2-Chlorophenyl)-3-[3-(2,4-difluorophenyl)ureido]-5-methylquinoline], the inhibition at 1 µM was 87.3%. On the same count and under the same terms, the same measure for `COc1ccc(-c2c(NC(=O)Nc3ccc(F)cc3F)cnc3ccc(Cl)cc23)c(OC)c1OC` [Example 68, 6-Chloro-3-[3-(2,4-difluorophenyl)ureido]-4-(2,3,4-trimethoxyphenyl)quinoline]: 98%; for `Cc1cc(C)c2ncc(NC(=O)Nc3cc(C)c(O)c(C)c3)c(-c3ccccc3Cl)c2c1` [Example 80, 4-(2-Chlorophenyl)-3-[3-(4-hydroxy-3,5-dimethylphenyl)ureido]-6,8-dimethylquinoline]: 95.9%. As for `O=C(Nc1ccc(F)cc1F)Nc1cnc2ccc(SC(F)F)cc2c1-c1ccccc1` [Example 53, 6-Difluoromethylthio-3-[3-(2,4-difluorophenyl)ureido]-4-phenylquinoline], the inhibition at 1 µM amounted to 85.7%. Still for that read-out and setting: the same measure for `O=C(Nc1ccc(Cl)cc1)Nc1cnc2ccc(Cl)cc2c1-c1ccccc1Cl` [Example 50, 6-Chloro-4-(2-Chlorophenyl)-3-[3-(4-chlorophenyl)ureido]quinoline]: 96.8%.

As for `Cc1cc(C)c2ncc(NC(=O)Nc3cc(C(C)C)c(O)c(C(C)C)c3)c(-c3ccccc3Cl)c2c1` [Example 79, 4-(2-chlorophenyl)-3-[3-(4-hydroxy-3,5-diisopropylphenyl)ureido]-6,8-dimethylquinoline], the inhibition at 1 µM came to 79.9%. Consider `Cc1ccc(-c2c(NC(=O)Nc3ccc(F)cc3F)cnc3ccc(Cl)cc23)cc1` [Example 26, 6-Chloro-3-[3-(2,4-difluorophenyl)ureido]-4-(4-methylpheynyl)quinoline], for which the inhibition at 1 µM amounted to 87.4%. On to `O=C(Nc1ccc(F)cc1F)Nc1cnc2ccc(F)cc2c1-c1ccccc1Cl` [Example 36, 4-(2-Chlorophenyl)-3-[3-(2,4-difluorophenyl)ureido]-6-fluoroquinoline], for which the inhibition at 1 µM worked out at 95.6%.

As to `COc1ccc(-c2c(NC(=O)Nc3ccc(F)cc3F)cnc3ccc(Cl)cc23)cc1OC` [Example 60, 6-Chloro-3-[3-(2,4-difluorophenyl)ureido]-4-(3,4-dimethoxyphenyl)quinoline], the inhibition at 1 µM worked out at 95.1%. On the same count and under the same terms, for `CCCCc1ccc2ncc(NC(=O)Nc3ccc(F)cc3F)c(-c3ccccc3Cl)c2c1` [Example 35, 6-Butyl-4-(2-chlorophenyl)-3-[3-(2,4-difluorophenyl)ureido]quinoline] the value was 97%. Still for that read-out and setting: for `O=C(Nc1ccc(F)cc1F)Nc1cnc2ccc(Cl)cc2c1-c1ccc(O)c(O)c1` [Example 75, 6-chloro-3-[3-(2,4-difluorophenylureido]-4-(3,4-dihydroxyphenyl)quinoline.1/2hydrate] the value was 61.2%; for `Cc1cc(C)c2ncc(NC(=O)Nc3c(C(C)C)cccc3C(C)C)c(-c3ccccc3Cl)c2c1` [Example 71, 4-(2-Chlorophenyl)-3-[3-(2,6-diisopropylphenyl)ureido]-6,8-dimethylquinoline], 98%; for `O=C(Nc1ccc(F)cc1F)Nc1cnc2ccccc2c1-c1ccccc1Cl` [Example 21, 4-(2-Chlorophenyl)-3-[3-(2,4-difluorophenyl)ureido]quinoline], 91.8%.

`Cc1ccccc1-c1c(NC(=O)Nc2ccc(F)c([N+](=O)[O-])c2)cnc2ccc(Cl)cc12` [Example 58, 6-Chloro-3-[3-(4-fluoro-3-nitrophenyl)ureido]-4-(2-methylphenyl)quinoline]: the inhibition at 1 µM stood at 88.5%. Same read-out and setting: for `O=C(Nc1ccc(F)cc1F)Nc1cnc2ccc(Cl)cc2c1-c1ccc(Cl)cc1` [Example 25, 6-Chloro-4-(4-chlorophenyl)-3-[3-(2,4-difluorophenyl)ureido]quinoline] the value was 77%. Turning to `Cc1cc(Cl)c2ncc(NC(=O)Nc3ccc(F)cc3F)c(-c3ccccc3Cl)c2c1` [Example 55, 8-Chloro-4-(2-chlorophenyl)-3-[3-(2,4-difluorophenyl)ureido]-6-methylquinoline], the inhibition at 1 µM worked out at 97.6%.

As for `CSc1ccccc1-c1c(NC(=O)Nc2ccc(F)cc2F)cnc2ccc(Cl)cc12` [Example 52, 6-Chloro-3-[3-(2,4-difluorophenyl)ureido]-4-(2-methylthiophenyl)quinoline], the inhibition at 1 µM worked out at 97.9%. Still for that read-out and setting: the same measure for `O=C(Nc1ccc(F)cc1F)Nc1cnc2ccc(C(F)(F)F)cc2c1-c1ccccc1` [Example 17, 3-[3-(2,4-Difluorophenyl)ureido]-4-phenyl-6-trifluoromethylquinoline]: 90.1%. Still for that read-out and setting: for `COc1ccccc1-c1c(NC(=O)Nc2ccc(F)cc2F)cnc2ccc(Cl)cc12` [Example 29] the value was 98.2%.

The record behind these values is patent publication US5254565A, “Quinoline derivatives, their production and use” (priority 1988, dated 1993).
